Data reported in paper PMC7467771, “Lipophilic Arginine Esters: The Gateway to Preservatives without Side Effects” (Molecular Pharmaceutics, 2020).

Tested on: Caco-2 cells
Experiment: resazurin assay, cytotoxicity
Assay type: cell-based
Details: for cytotoxicity (samples showing >80% cell viability considered nontoxic): Caco-2, 4 h incubation, at 3000 μg mL^–1; for EC50: Homo sapiens, Caco-2, 4 h, read-out: EC50 (concentration causing 50% cell death)
Procedure: The resazurin assay was used to determine the cytotoxic potential of Arg-esters according to a previous method with some minor modifications.[15] Caco-2 cells were seeded in a 24-well cell culture plate at 25 000 cells per well density and kept in an incubator at 37 °C under a 95% relative humidity environment and 5% CO2 level. Minimum essential medium (MEM) supplemented with streptomycin (0.1 mg […]), penicillin (100 units […]), and fetal calf serum (FCS) 10% (v/v) was used for growing cells. During a growth period of 14 days, the medium was replaced every other day. On the day of the experiment, test solutions of Arg-OL and Arg-DT esters were prepared in 25 mM HBS (HEPES buffered saline) buffer (pH 7.4) in the concentration range of 1000–3000 μg mL^–1. For comparison, the same concentrations of BAC and cetrimide were also prepared in HBS. HBS without any addition was used as a positive control, and Triton X-100 (2%, v/v) in HBS was used as a negative control. The growth medium from all wells of the cell culture plate was removed, and cells were washed three times with HBS preheated at 37 °C. Each test solution and controls were then added to individual wells in a volume of 500 μL, and the cell culture plate was incubated under the same conditions. After 4 h, the solution from each well was removed, and cells were washed with HBS (pH 7.4) preheated at 37 °C. Then, 500 μL of resazurin (2.2 mM) per well was added and incubated for further 3 h under the same conditions. Afterward, the fluorescence of the supernatant from each well was measured at the excitation wavelength of 540 nm and an emission wavelength of 590 nm. Cell viability was calculated by the equation: [drawing 4]

Q: For CCCCCCCCCCCCC(CCCCCCCCCC)COC(=O)[C@@H](N)CCCNC(=N)N.O=C(O)C(F)(F)F (stereo partly shown) [Arg-DT, 2-Decyltetradecyl Argininate Trifluoroacetate], which “cytotoxicity (samples showing >80% cell viability considered nontoxic)” value is on record?
A: Its value is “noncytotoxic”.

Q: And the EC50?
A: The EC50 was 4500 µg/mL.

Q: Which “cytotoxicity (samples showing >80% cell viability considered nontoxic)” value does the source give for CCCCCCCCC=CCCCCCCCCOC(=O)[C@@H](N)CCCNC(=N)N.O=C(O)C(F)(F)F [Arg-OL, Octadec-9-en-1-yl Argininate Trifluoroacetate] here?
A: Its value is “cytotoxic”.

Q: What about the EC50 of the same compound?
A: Its EC50 is 2600 µg/mL.
